Consider 24 compounds from patent US10752616B2, “Bicycloheteroaryl-heteroaryl-benzoic acid compounds as retinoic acid receptor beta (RARβ) agonists” (King's College London, priority 2014, dated 2020).

Assay type in all cases: cell-based
One assay has as its target RARγ (Mus musculus (Mouse), UniProt P18911). The assay is described as follows: Transactivation assay for RARγ (gal4-RAR fusion, pFR-luc reporter, COS-7 cells), Table 2. Particulars: for RARγ/RARβ ratio: fold-selectivity for RARβ over RARγ, >1 = selective for RARβ. The procedure:
(§1) Transcriptional transactivation assays were performed with gal4 fusion receptor constructs, created using each of the RAR ligand binding domains of either mouse or human, co-transfected with the pFR-luc (Stratagene) reporter construct in COS-7 cells.
(§2) Briefly, on day 1, 96 well plates were seeded with 8000 cells per well then left to recover overnight. On day 2, the cells were co-transfected with 100 ng of reporter plasmid and 10 ng of the appropriate receptor plasmid per well using lipofectamine (Invitrogen). On day 3, the lipofectamine containing media was replaced by a DMEM without phenol red, followed by the addition of test compound dissolved in 1 μL of DMSO to each well's 100 μL total volume. Finally, on day 4, the cells were lysed and their luciferase substrate was provided by the BrightGlo™ reagent (Promega), the plates were then read on the MicroBeta TriLux™ (Perkin Elmer).
(§3) Data for test compounds are quoted as EC50 values. Where replicate data has been generated, the data are quoted as the mean EC50 from the separate experiments.
(§4) EC50's values are reported as mean values of three or more determinations.

The target in a further assay is RARβ (Mus musculus (Mouse), UniProt P22605). Kind of assay: Transactivation assay for RARβ (gal4-RAR fusion, pFR-luc reporter, COS-7 cells), Table 2. Particulars: COS-7 reporter, mean of three or more determinations, species not stated (method: mouse or human). The procedure: as §1, §2, §3, §4
RARβ, sequence (P22605 210-444): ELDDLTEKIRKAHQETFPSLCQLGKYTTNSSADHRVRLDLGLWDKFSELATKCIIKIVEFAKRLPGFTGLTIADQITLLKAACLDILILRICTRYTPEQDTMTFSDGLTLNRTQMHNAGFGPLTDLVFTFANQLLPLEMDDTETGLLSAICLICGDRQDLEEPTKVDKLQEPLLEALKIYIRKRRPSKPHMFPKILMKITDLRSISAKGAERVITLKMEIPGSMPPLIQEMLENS
A further assay addresses RARα (Mus musculus (Mouse), UniProt P11416). Kind of assay: Transactivation assay for RARα (gal4-RAR fusion, pFR-luc reporter, COS-7 cells), Table 2. Particulars: for RARα/RARβ ratio: fold-selectivity for RARβ over RARα, >1 = selective for RARβ. The procedure:
as §1, §2, §3, §4

Setting [1] is: Table 2, COS-7 reporter, mean of three or more determinations, inactive = no agonist action at highest concentration tested.

RARγ, sequence (P18911 185-419): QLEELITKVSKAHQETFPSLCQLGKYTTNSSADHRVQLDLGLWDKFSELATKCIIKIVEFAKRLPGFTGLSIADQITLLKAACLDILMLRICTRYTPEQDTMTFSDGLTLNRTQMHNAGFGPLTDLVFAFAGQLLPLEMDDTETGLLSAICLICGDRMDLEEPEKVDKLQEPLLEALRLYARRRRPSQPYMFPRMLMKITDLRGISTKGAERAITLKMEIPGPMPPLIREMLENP
RARα, sequence (P11416 183-417): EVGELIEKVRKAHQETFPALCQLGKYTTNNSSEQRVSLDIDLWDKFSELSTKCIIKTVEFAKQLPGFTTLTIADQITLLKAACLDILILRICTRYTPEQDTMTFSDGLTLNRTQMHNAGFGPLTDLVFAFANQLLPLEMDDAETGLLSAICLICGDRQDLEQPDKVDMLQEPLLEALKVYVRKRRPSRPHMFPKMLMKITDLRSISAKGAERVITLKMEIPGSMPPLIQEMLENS

Consider `Cc1ccc(C)c2oc(-c3nc(-c4ccc(C(=O)O)cc4)no3)nc12` [BHBA-023, 4-(5-(4,7-Dimethylbenzo[d]oxazol-2-yl)-1,2,4-oxadiazol-3-yl)benzoic acid], for which, at RARγ (setting [1]), a half-maximal response (EC50) required 83 nM.
In the case of `Cc1ccc(C)c2oc(-c3nc(-c4ccc(C(=O)O)cc4N)no3)cc12` [BHBA-005, 3-Amino-4-(5-(4,7-dimethylbenzofuran-2-yl)-1,2,4-oxadiazol-3-yl)benzoic acid], the figures for the EC50 on RARγ (setting [1]), on RARβ and on RARα (setting [1]) were 55 nM, 23 nM and 130 nM, respectively. Further, the RARγ/RARβ ratio on RARγ came out at 2. Further, on RARα, the RARα/RARβ ratio was determined as 5.
The corresponding values for `Cc1ccc(C)c2oc(-c3nc(-c4ccc(C(=O)O)cc4Cl)no3)nc12` [BHBA-024, 3-Chloro-4-(5-(4,7-dimethylbenzo[d]oxazol-2-yl)-1,2,4-oxadiazol-3-yl)benzoic acid] are 47 nM, 24 nM, 180 nM, 2 and 7.5.
As for `Cc1ccc(C)c2oc(-c3nc(-c4ccc(C(=O)O)cc4)ns3)cc12` [BHBA-038, 4-(5-(4,7-Dimethylbenzofuran-2-yl)-1,2,4-thiadiazol-3-yl)benzoic acid], the EC50 (commonly the midpoint of the concentration-response curve) on RARγ (setting [1]) is 6.1 nM; on RARβ, 5.1 nM; at RARα (setting [1]) it was 19 nM. Moreover, the RARγ/RARβ ratio on RARγ came to 1.2. Further, the RARα/RARβ ratio on RARα was found to be 3.7.
On to `Cc1ccc(C)c2oc(-c3nc(-c4ccc(C(=O)O)cc4C(F)(F)F)no3)cc12` [BHBA-004, 4-(5-(4,7-Dimethylbenzofuran-2-yl)-1,2,4-oxadiazol-3-yl)-3-(trifluoromethyl)benzoic acid], for which, at RARγ (setting [1]), the “RARγ EC50” value is “inactive”. At RARβ, this compound yielded an EC50 of 10 nM. At RARα (setting [1]), the “RARα EC50” value was “inactive”.
As to `Cc1ccc(C)c2oc(-c3noc(-c4ccc(C(=O)O)c(F)c4)n3)cc12` [BHBA-033, 4-(3-(4,7-Dimethylbenzofuran-2-yl)-1,2,4-oxadiazol-5-yl)-2-fluorobenzoic acid], the results for the EC50 at RARγ (setting [1]), on RARβ and at RARα (setting [1]) were 23 nM, 13 nM and 45 nM, respectively. For the same compound, the RARγ/RARβ ratio at RARγ is recorded as 1.8. In addition, on RARα, the RARα/RARβ ratio turned out to be 3.5.
For the compound `Cc1ccc(C)c2oc(-c3nc(-c4ccc(C(=O)O)c(F)c4)no3)cc12` [BHBA-007, 2-Fluoro-4-(5-(4,7-dimethylbenzofuran-2-yl)-1,2,4-oxadiazol-3-yl)benzoic acid], the concentration giving a half-maximal response (EC50) at RARγ (setting [1]) was determined as 8.4 nM; at RARβ, 2.2 nM; on RARα (setting [1]), 16 nM.
The corresponding values for `Cc1cc(-c2noc(-c3nc4c(C)ccc(C)c4o3)n2)ccc1C(=O)O` [BHBA-025, 4-(5-(4,7-Dimethylbenzo[d]oxazol-2-yl)-1,2,4-oxadiazol-3-yl)-2-methylbenzoic acid] are 140 nM, 41 nM and 150 nM.
As for `Cc1ccc(C)c2oc(-c3nnc(-c4ccc(C(=O)O)cc4)o3)cc12` [BHBA-034, 4-(5-(4,7-Dimethylbenzofuran-2-yl)-1,3,4-oxadiazol-2-yl)benzoic acid], the EC50 on RARγ (setting [1]) was found to be 58 nM; on RARβ, 20 nM; at RARα (setting [1]), 92 nM. Moreover, the RARγ/RARβ ratio at RARγ came out at 2.9. The RARα/RARβ ratio on RARα turned out to be 4.6.
In the case of `Cc1ccc(C)c2oc(-c3nc(-c4ccc(C(=O)O)c(F)c4)ns3)cc12` [BHBA-041, 4-(5-(4,7-Dimethylbenzofuran-2-yl)-1,2,4-thiadiazol-3-yl)-2-fluorobenzoic acid], the concentration giving a half-maximal response (EC50) at RARγ (setting [1]) amounted to 4.7 nM; at RARβ it was 4.3 nM; on RARα (setting [1]) it was 20 nM. In addition, the RARγ/RARβ ratio on RARγ is recorded as 1.0. Moreover, the RARα/RARβ ratio on RARα worked out at 4.6.
As for `Cc1ccc(Cl)c2cc(-c3nc(-c4ccc(C(=O)O)cc4)no3)oc12` [BHBA-016, 4-(5-(4-Chloro-7-methylbenzofuran-2-yl)-1,2,4-oxadiazol-3-yl)benzoic acid], the EC50 on RARγ (setting [1]) stood at 6 nM; at RARβ it was 2.7 nM; at RARα (setting [1]), 18 nM. The RARγ/RARβ ratio on RARγ came to 2. Further, the RARα/RARβ ratio on RARα stood at 7.
Consider `Cc1ccc(C)c2oc(-c3nc(-c4ccc(C(=O)O)cc4Br)no3)cc12` [BHBA-003, 3-Bromo-4-(5-(4,7-dimethylbenzofuran-2-yl)-1,2,4-oxadiazol-3-yl)benzoic acid], for which the EC50 at RARγ (setting [1]) stood at 36 nM; at RARβ, 16 nM; at RARα (setting [1]), 160 nM. The RARγ/RARβ ratio on RARγ was found to be 2. In addition, the RARα/RARβ ratio at RARα was determined as 10.
For `Cc1cc(-c2nsc(-c3cc4c(C)ccc(C)c4o3)n2)ccc1C(=O)O` [BHBA-040, 4-(5-(4,7-Dimethylbenzofuran-2-yl)-1,2,4-thiadiazol-3-yl)-2-methylbenzoic acid], the EC50 on RARγ (setting [1]) was 130 nM; at RARβ, 11 nM; at RARα (setting [1]), 72 nM.
The corresponding values for `Cc1ccc(C)c2oc(-c3nc(-c4ccc(C(=O)O)c(F)c4)no3)nc12` [BHBA-026, 4-(5-(4,7-Dimethylbenzo[d]oxazol-2-yl)-1,2,4-oxadiazol-3-yl)-2-fluorobenzoic acid] are 77 nM, 13 nM and 47 nM.
As for `Cc1cc(-c2nc(-c3cc4c(C)ccc(C)c4o3)no2)ccc1C(=O)O` [BHBA-032, 4-(3-(4,7-Dimethylbenzofuran-2-yl)-1,2,4-oxadiazol-5-yl)-2-methylbenzoic acid], the results for the EC50 on RARγ (setting [1]), on RARβ and on RARα (setting [1]) were 22 nM, 8.1 nM and 150 nM, respectively. For the same compound, the RARγ/RARβ ratio on RARγ is given as 2.7. Further, the RARα/RARβ ratio on RARα is 18.5.
For `Cc1ccc(Cl)c2cc(-c3nc(-c4ccc(C(=O)O)cc4Cl)no3)oc12` [BHBA-018, 3-Chloro-4-(5-(4-chloro-7-methylbenzofuran-2-yl)-1,2,4-oxadiazol-3-yl)benzoic acid], the EC50 on RARγ (setting [1]) stood at 140 nM; on RARβ, 41 nM; at RARα (setting [1]) it was 150 nM.
Regarding `O=C(O)c1ccc(-c2noc(-c3cc4c(Cl)ccc(Cl)c4o3)n2)cc1` [BHBA-011, 4-(5-(4,7-Dichlorobenzofuran-2-yl)-1,2,4-oxadiazol-3-yl)benzoic acid], the EC50 at RARγ (setting [1]) turned out to be 14 nM; at RARβ, 4.3 nM; on RARα (setting [1]), 26 nM.
As for `O=C(O)c1ccc(-c2noc(-c3cc4c(C(F)(F)F)ccc(F)c4o3)n2)c(Cl)c1` [BHBA-020, 3-Chloro-4-(5-(7-fluoro-4-(trifluoromethyl)benzofuran-2-yl)-1,2,4-oxadiazol-3-yl)benzoic acid], the EC50 on RARγ (setting [1]) turned out to be 23 nM; on RARβ, 8 nM; on RARα (setting [1]) it was 60 nM.
Consider `Cc1ccc(C)c2oc(-c3noc(-c4ccc(C(=O)O)cc4F)n3)cc12` [BHBA-030, 4-(3-(4,7-Dimethylbenzofuran-2-yl)-1,2,4-oxadiazol-5-yl)-3-fluorobenzoic acid], for which the EC50 on RARγ (setting [1]) was found to be 18 nM; at RARβ, 10 nM; at RARα (setting [1]) it was 58 nM. Further, the RARγ/RARβ ratio at RARγ is 1.8. For the same compound, on RARα, the RARα/RARβ ratio is listed as 5.8.
For `Cc1ccc(C)c2oc(-c3nsc(-c4ccc(C(=O)O)c(F)c4)n3)cc12` [BHBA-044, 4-(3-(4,7-Dimethylbenzofuran-2-yl)-1,2,4-thiadiazol-5-yl)-2-fluorobenzoic acid], the half-maximal effective concentration (EC50) is 3.4 nM at RARγ (setting [1]), 2 nM at RARβ and 26 nM at RARα (setting [1]). For the same compound, on RARγ, the RARγ/RARβ ratio worked out at 1.7. Also, the RARα/RARβ ratio at RARα was determined as 13.
`Cc1ccc(C)c2oc(-c3noc(-c4ccc(C(=O)O)cc4Cl)n3)cc12` [BHBA-031, 3-Chloro-4-(3-(4,7-dimethylbenzofuran-2-yl)-1,2,4-oxadiazol-5-yl)benzoic acid]: the EC50 at RARγ (setting [1]) turned out to be 42 nM; on RARβ it was 17 nM; on RARα (setting [1]) it was 150 nM. At RARγ, the RARγ/RARβ ratio is reported as 2.5. For the same compound, the RARα/RARβ ratio on RARα was found to be 8.8.
`Cc1ccc(Cl)c2oc(-c3nc(-c4ccc(C(=O)O)cc4Cl)no3)cc12` [BHBA-017, 3-Chloro-4-(5-(7-chloro-4-methylbenzofuran-2-yl)-1,2,4-oxadiazol-3-yl)benzoic acid]: the EC50 on RARγ (setting [1]) was 18 nM; at RARβ, 7.4 nM; on RARα (setting [1]), 56 nM. The RARγ/RARβ ratio on RARγ was 2.4. Moreover, the RARα/RARβ ratio on RARα came out at 8.
As for `Cc1ccc(C)c2oc(-c3noc(-c4ccc(C(=O)O)cc4)n3)cc12` [BHBA-028, 4-(3-(4,7-Dimethylbenzofuran-2-yl)-1,2,4-oxadiazol-5-yl)benzoic acid], the EC50 is 8.3 nM on RARγ (setting [1]), 8.2 nM on RARβ and 26 nM at RARα (setting [1]). In addition, the RARγ/RARβ ratio on RARγ is reported as 1. Besides, on RARα, the RARα/RARβ ratio is given as 3.
Take `O=C(O)c1ccc(-c2noc(-c3cc4c(Cl)ccc(Cl)c4o3)n2)cc1F` [BHBA-014, 2-Fluoro-4-(5-(4,7-dichlorobenzofuran-2-yl)-1,2,4-oxadiazol-3-yl)benzoic acid]: the values for the EC50 on RARγ (setting [1]), on RARβ and on RARα (setting [1]) were 11 nM, 2 nM and 12 nM, respectively.
